In ChEMBL document CHEMBL1667742, “Angiotensin II receptor type 1 (AT1) selective nonpeptidic antagonists--a perspective” (Bioorg Med Chem, 2010):
Substitutions are numbered along the chain they refer to.

Legend:
[1] = Antagonist activity at angiotensin AT1 receptor in rat adrenal cortical membranes; type: functional, cell membranes
[2] = target: T1, Type-1 angiotensin II receptor (Bos taurus) (UniProt P25104); assay: Binding affinity to angiotensin AT1 receptor in bovine adrenal cortex membranes; type: cell membranes; details: Membrane
T1 sequence (whole entry): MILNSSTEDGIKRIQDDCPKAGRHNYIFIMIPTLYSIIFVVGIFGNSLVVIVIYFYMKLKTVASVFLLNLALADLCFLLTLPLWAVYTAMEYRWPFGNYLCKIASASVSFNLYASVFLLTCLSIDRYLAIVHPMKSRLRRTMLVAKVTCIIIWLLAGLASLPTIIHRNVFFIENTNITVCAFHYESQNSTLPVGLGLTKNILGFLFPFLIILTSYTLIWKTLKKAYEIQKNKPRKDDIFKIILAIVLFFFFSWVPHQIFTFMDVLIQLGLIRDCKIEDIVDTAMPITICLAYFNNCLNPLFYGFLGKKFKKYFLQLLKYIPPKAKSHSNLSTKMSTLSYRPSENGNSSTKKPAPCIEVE

[3] = target: T2, Type-1 angiotensin II receptor (Oryctolagus cuniculus, UniProt P34976); assay: Antagonist activity at angiotensin AT1 receptor in rabbit aorta assessed as reduction of angiotensin 2-induced contractile response; type: functional, tissue-based; details: read-out: pA2 (converted)
T2 sequence (P34976 whole entry): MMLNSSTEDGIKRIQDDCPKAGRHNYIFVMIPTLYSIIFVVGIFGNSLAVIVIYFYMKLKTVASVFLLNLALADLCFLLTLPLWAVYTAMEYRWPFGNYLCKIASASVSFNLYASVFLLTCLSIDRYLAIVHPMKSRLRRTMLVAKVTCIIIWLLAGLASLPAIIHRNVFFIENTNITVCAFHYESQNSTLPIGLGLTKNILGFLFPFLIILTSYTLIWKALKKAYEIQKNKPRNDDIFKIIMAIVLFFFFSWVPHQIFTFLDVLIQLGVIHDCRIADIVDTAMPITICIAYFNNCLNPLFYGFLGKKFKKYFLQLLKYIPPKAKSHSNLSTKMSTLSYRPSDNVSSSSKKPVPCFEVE

[4] = target: T2, Type-1 angiotensin II receptor; assay: (§1) Antagonist activity at angiotensin AT1 receptor in rabbit aorta; type: functional, tissue-based; details: read-out: pA2 (converted)
[5] = target: T3, Type-1 angiotensin II receptor (Homo sapiens, UniProt P30556); assay: Binding affinity to angiotensin AT1 receptor
T3 sequence (P30556 whole entry): T2 sequence (P34976 whole entry) with M2I, A49V, V254I, V270I, H272R, K311R, S349T, V353A

[6] = target: T3, Type-1 angiotensin II receptor; assay: Antagonist activity at angiotensin AT1 receptor; type: functional; details: for Kb: read-out: pA2 (converted)
[7] = Binding affinity to angiotensin AT1 receptor in rat liver membranes; type: cell membranes, Membrane
[8] = target: T4, Type-2 angiotensin II receptor (Homo sapiens, UniProt P50052); assay: Binding affinity to angiotensin AT2 receptor
T4 sequence (P50052 whole entry): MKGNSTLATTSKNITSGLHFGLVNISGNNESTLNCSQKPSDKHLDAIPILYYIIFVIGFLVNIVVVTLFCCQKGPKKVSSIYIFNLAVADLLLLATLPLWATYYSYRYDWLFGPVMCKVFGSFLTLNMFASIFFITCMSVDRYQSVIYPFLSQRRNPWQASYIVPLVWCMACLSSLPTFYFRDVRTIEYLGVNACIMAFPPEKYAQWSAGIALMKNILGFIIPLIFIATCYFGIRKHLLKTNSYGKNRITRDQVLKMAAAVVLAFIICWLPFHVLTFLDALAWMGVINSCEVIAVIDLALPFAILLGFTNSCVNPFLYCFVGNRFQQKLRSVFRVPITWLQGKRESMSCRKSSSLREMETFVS

[9] = Antagonist activity at angiotensin AT1 receptor in rat aorta; type: functional, tissue-based
[10] = target: T5, Type-1 angiotensin II receptor (Oryctolagus cuniculus) (UniProt P34976); assay: as §1; type: functional, tissue-based
T5 sequence (whole entry): T2 sequence (P34976 whole entry)

[11] = Binding affinity to angiotensin AT1 receptor in rat adrenal cortical membranes; type: cell membranes
[12] = Selectivity ratio of IC50 for angiotensin AT1 receptor to IC50 for angiotensin AT2 receptor
[13] = tested on: Rattus norvegicus; assay: Antihypertensive activity in iv dosed renal hypertensive rat model; type: functional
[14] = Displacement of radiolabeled angiotensin2 from angiotensin AT1 receptor in rat adrenal cortex membranes; type: cell membranes, Membrane
[15] = tested on: Rattus norvegicus; assay: Ratio of compound ED50 to losartan ED50 for po dosed renal hypertensive rat model; type: functional
[16] = Antagonist activity at angiotensin AT1 receptor in rat liver membranes; type: functional, cell membranes, Membrane
[17] = tested on: Rattus norvegicus; assay: Antihypertensive activity in po dosed conscious rat; type: functional; details: read-out: ID50 (the source's name)
[18] = target: T2, Type-1 angiotensin II receptor; assay: Antagonist activity at angiotensin AT1 receptor in rabbit aortic strip assessed as inhibition of angiotensin 2-induced contractile response; type: functional
[19] = Oral bioavailability in rat; type: ADME, organism-based; details: in vivo

Structure (SMILES): CCCCc1nc2cccnc2n1-c1ccc(CCO/C(O)=C2\C(C(C)C)=NC(C)=C(C(=O)Nc3cccnc3)C2c2ccccc2Cl)cc1 (centres undefined)
- IC50 [1]: 0.6 nM

Structure (SMILES): CCCc1cc(=O)n(CC(=O)N(C)C)c(=O)n1Cc1ccc(-c2ccccc2-c2nn[nH]n2)cc1
- Activity [2]: 9.3 nM
- IC50 [1]: 0.65 nM

Structure (SMILES): CCCCCc1nc(SCc2ccc(-c3ccccc3C(=O)O)cc2)nn1Cc1ccc(-c2ccccc2C(=O)O)cc1
- Kb [3]: 3.98 nM

Structure (SMILES): CCCCCCC(C(=O)O)n1cnc(NC(=O)c2cccc(O)c2C(=O)O)c1 (centres undefined)
- Kb [4]: 100 nM

Structure (SMILES): CCCCc1nnc(SCc2ccccc2C(=O)O)n1Cc1ccc(-c2ccccc2-c2nn[nH]n2)cc1
- IC50 [5]: 1.4 nM

Structure (SMILES): CCCCc1nc2ccc([C@]3(C)C[C@H]4CCCN4O3)cc2c(=O)n1Cc1ccc(-c2ccccc2-c2nn[nH]n2)cc1
- Kb [6]: 0.0126 nM

Structure (SMILES): COc1c(OCc2ccc(-c3ccccc3-c3nn[nH]n3)cc2)cc(C)nc1C
- Kb [3]: 1.51 nM
- pKi [7]: 8.7

Structure (SMILES): CCCCc1nc(Cc2ccc(-c3ccccc3-c3nnn[nH]3)cc2)n(CCCC)n1
- Kb [6]: 3.16 nM
- IC50 [5]: 16 nM

Structure (SMILES): CCCCc1nc(Cl)c2n1C(c1ccc(-c3ccccc3-c3nnn[nH]3)cc1)CC=C2C(=O)O (centres undefined)
- IC50 [8]: 50 nM

Structure (SMILES): CCCCC(=O)N(Cc1ccc(-c2ccccc2-c2nnn[nH]2)cc1)[C@H](C(=O)O)C(C)C
- IC50 [9]: 2.7 nM

Structure (SMILES): CCCSC1=NS(=O)(=O)c2ccc(C(=O)O)cc2N1Cc1ccc(-c2ccccc2-c2nn[nH]n2)cc1
- Kb [10]: 0.08 nM
- Ki [11]: 8.5 nM

Structure (SMILES): CCc1nc2ccc(N(Cc3ccccc3)C(=O)c3cccs3)cc2c(=O)n1Cc1ccc(-c2ccccc2-c2nn[nH]n2)cc1
- Ratio IC50 [12]: 3000

Structure (SMILES): CCc1cc(OCc2ccc(-c3ccccc3-c3nnn[nH]3)cc2)c2ccccc2n1
- Kb [4]: 5.01 nM

Structure (SMILES): Cc1ccnc2c1nc(C1CC1)n2Cc1ccc(-c2ccccc2C(=O)O)cc1
- Kb [4]: 2 nM
- IC50 [11]: 52 nM

Structure (SMILES): CCCc1nc2c(n1Cc1ccc(-c3ccccc3-c3nnn[nH]3)cc1)C(=O)CCCC2 [PRATOSARTAN]
- Kb [4]: 0.0912 nM

Structure (SMILES): CCCc1nc(C)n2[nH]c(=O)nc2c1Cc1ccc(-c2ccccc2-c2nnn[nH]2)cc1
- Ki [5]: 24 nM

Structure (SMILES): CCCCc1cn([C@H]2[C@H](C)CCC[C@@H]2C)c(=O)n1Cc1ccc(-c2ccccc2-c2nnn[nH]2)nc1 [SC-55634]
- Kb [6]: 0.501 nM
- IC50 [5]: 4.9 nM

Structure (SMILES): C[C@@H]1CN(Cc2ccc(-c3ccccc3-c3nn[nH]n3)cc2)C[C@H](C)O1
- Kb [6]: 126 nM

Structure (SMILES): CCOc1nc2cccc(C(=O)O)c2n1Cc1ccc(-c2ccccc2-c2nsc(O)n2)cc1
- Activity [2]: 2.5 nM

Structure (SMILES): CCCCc1nc2cccnc2n1Cc1ccc(-n2cccc2-c2nnn[nH]2)cc1
- Kb [4]: 3.55 nM
- IC50 [9]: 0.6 nM

Structure (SMILES): CCCc1nc2ccccc2n1C(F)(F)C(O)c1ccc(-c2ccccc2-c2nnn[nH]2)cc1 (centres undefined)
- ED30 [13]: 2 mg/kg
- Ki [5]: 29 nM
- Ki [8]: 480 nM

Structure (SMILES): CCCc1nc(CC)c(C(=O)O)n1Cc1ccc(-c2ccccc2-c2nn[nH]n2)cc1
- IC50 [14]: 6 nM
- Ratio ED50 [15]: 20

Structure (SMILES): CCc1cc(OCc2ccc(-c3ccccc3-c3nnn[nH]3)cc2)c2c(n1)CCCC2
- Kb [4]: 0.0501 nM

Structure (SMILES): CCc1nc2c(C)cc(C)nc2n1Cc1ccc(-c2ccccc2S(=O)(=O)NC(=O)c2ccccc2)cc1
- Kb [4]: 0.0501 nM

Structure (SMILES): Cc1nc(Sc2ccc(-c3ccccc3-c3nn[nH]n3)cc2)c2ccccc2n1
- IC50 [16]: 350 nM

Structure (SMILES): CCCCc1nc(Cl)c2n1C(c1ccc(-c3ccccc3-c3nnn[nH]3)cc1)CC(C(=O)O)=C2 (centres undefined)
- IC50 [8]: 10 nM

Structure (SMILES): CCCCC1=NC(Cl)=C(C(=O)O)C(C)N1Cc1ccc(-c2ccccc2-c2nnn[nH]2)cc1 (centres undefined)
- Ki [5]: 1 nM

Structure (SMILES): CCCCc1nc(CCCC)n(Cc2ccc(-c3ccccc3-c3nnn[nH]3)cc2)n1
- Kb [6]: 2 nM
- IC50 [5]: 5.6 nM

Structure (SMILES): CCCCc1nc2ccccc2[n+]([O-])c1Oc1ccc(-c2ccccc2-c2nn[nH]n2)cc1
- Ki [8]: 4.5 nM

Structure (SMILES): CCOc1nc2cccc(C(=O)O)c2n1Cc1ccc(-c2ccccc2-c2noc(=O)[nH]2)cc1 [AZILSARTAN]
- Activity [2]: 4.2 nM
- ED50 [17]: 0.04 mg/kg

Structure (SMILES): CCCCc1nc(C)n(Cc2sccc2C(=O)OC)c(=O)c1Cc1ccc(-c2ccccc2-c2nnn[nH]2)cc1
- Ki [11]: 0.9 nM

Structure (SMILES): CCCCc1cn(CCCC)c(=O)n1Cc1ccc(-c2ccccc2-c2nnn[nH]2)nc1 [SC-52892]
- Kb [6]: 2.09 nM
- IC50 [5]: 6.5 nM

Structure (SMILES): CCc1nc2c(n1Cc1ccc(-c3ccccc3-c3nn[nH]n3)cc1)/C(=C/C(=O)O)CCCC2
- pD2 [10]: 9.91
- IC50 [7]: 5.5 nM

Structure (SMILES): CCCCc1nc2cccc(C(=O)O)c2n1Cc1ccc(-c2ccccc2-c2nnn[nH]2)cc1
- IC50 [18]: 0.055 nM

Structure (SMILES): CCc1cc(Sc2ccc(-c3ccccc3-c3nn[nH]n3)cc2)c2ncccc2n1
- IC50 [16]: 20 nM

Structure (SMILES): CCCCc1cn(CCCC)c(=O)n1Cc1ccc(-c2ccccc2-c2nnn[nH]2)cc1 [SC-51895]
- Kb [6]: 2.24 nM
- IC50 [5]: 12 nM

Structure (SMILES): CCc1nn(Cc2ccc(-c3ccccc3-c3nn[nH]n3)cc2)/c(=N/C(=O)C2=C(C(=O)[O-])CCC2)s1.[K+]
- IC50 [6]: 0.4 nM
- Ratio ED50 [15]: 10

Structure (SMILES): CCCCc1nc2ccn(CC(=O)N3CCCCC3)c(=O)c2n1Cc1ccc(-c2ccccc2S(=O)(=O)NC(=O)OCc2ccccc2)cc1F
- IC50 [5]: 4.7 nM
- IC50 [8]: 3.5 nM
- Ratio IC50 [12]: 0.74

Structure (SMILES): CCCc1nc(CC)c(C=O)n1Cc1ccc(-c2ccccc2-c2nn[nH]n2)cc1
- IC50 [14]: 2.1 nM

Structure (SMILES): CCc1nc2ccc(NC(=O)N(C)C(C)C)cc2c(=O)n1Cc1ccc(-c2ccccc2S(=O)(=O)NC(=O)OCCC2CC2)cc1F
- Ratio IC50 [12]: 2

Structure (SMILES): CCc1nc2c(C)cc(C)nc2n1Cc1ccc(-c2c(-c3nn[nH]n3)cnc3ccccc23)cc1
- IC50 [7]: 0.4 nM

Structure (SMILES): CCOc1nc2cccc(C(=O)OC(C)OC(=O)OC3CCCCC3)c2n1Cc1ccc(-c2ccccc2-c2nnn[nH]2)cc1 (centres undefined) [CANDESARTAN CILEXETIL]
- bioavailability [19]: 28%
- IC50 [18]: 200 nM
- ED50 [17]: 0.06 mg/kg

Structure (SMILES): CCCc1nc(C(F)(F)C(F)(F)F)c(C(=O)O)n1Cc1ccc(-c2ccccc2-c2nn[nH]n2)cc1
- IC50 [14]: 3.1 nM

Structure (SMILES): CCCCc1nc2ccc(C(C)(C)OC)cc2c(=O)n1Cc1ccc(-c2ccccc2-c2nn[nH]n2)cc1 [CL-329167]
- Kb [4]: 9.77 nM
- Kb [6]: 0.0126 nM
- IC50 [5]: 6 nM

Structure (SMILES): CCCCc1c(Cc2ccc(-c3ccccc3-c3nn[nH]n3)cc2)[n+]([O-])c2ccccc2[n+]1[O-]
- Ki [11]: 2.6 nM
- Kb [9]: 2.1 nM

Structure (SMILES): CCc1nc2c(CC)cn(Cc3ccc(-c4ccccc4-c4nn[nH]n4)cc3)n2n1
- Kb [4]: 1.51 nM
